According to ChEMBL document CHEMBL1201862, “PubChem BioAssay data set” (2004):
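48-hour exposure; five concentrations; linearly interpolated endpoints. GI50 is the concentration that inhibits growth by half.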 Active and inactive are the calls of the source. No stated cut-off is given here; in the data, active = GI50 up to about 1.1 µM and inactive = higher.

How the values were obtained:
Assay in all cases: inhibition of tumour cell growth, NCI panel, 48 h
PC-3 = test system: PC-3
UACC-257 = test system: UACC-257
HL-60 = test system: HL-60
NCI-H226 = test system: NCI-H226
HOP-92 = test system: HOP-92
T47D = test system: T47D
TK-10 = test system: TK-10
ACHN = test system: ACHN
NCI-H460 = test system: NCI-H460
DU-145 = test system: DU-145
SK-MEL-28 = test system: SK-MEL-28
HCC 2998 = test system: HCC 2998
K562 = test system: K562
SR = test system: SR
SK-OV-3 = test system: SK-OV-3
HCT-116 = test system: HCT-116
Malme-3M = test system: Malme-3M
IGROV-1 = test system: IGROV-1
BT-549 = test system: BT-549
SF-268 = test system: SF-268
OVCAR-8 = test system: OVCAR-8
SNB-75 = test system: SNB-75
NCI/ADR-RES = test system: NCI/ADR-RES
HT-29 = test system: HT-29
LOX IMVI = test system: LOX IMVI
SN12C = test system: SN12C
RPMI-8226 = test system: RPMI-8226
COLO 205 = test system: COLO 205
SK-MEL-2 = test system: SK-MEL-2
MDA-N = test system: MDA-N
OVCAR-5 = test system: OVCAR-5
NCI-H522 = test system: NCI-H522
SK-MEL-5 = test system: SK-MEL-5
U-251 = test system: U-251
MDA-MB-435 = test system: MDA-MB-435
EKVX = test system: EKVX
M14 = test system: M14
HOP-62 = test system: HOP-62
SW-620 = test system: SW-620
UACC-62 = test system: UACC-62
CCRF-CEM = test system: CCRF-CEM
RXF 393 = test system: RXF 393
UO-31 = test system: UO-31
786-0 = test system: 786-0
SF-295 = test system: SF-295
MCF7 = test system: MCF7
OVCAR-3 = test system: OVCAR-3
A498 = test system: A498
NCI-H23 = test system: NCI-H23
Hs-578T = test system: Hs-578T
MOLT-4 = test system: MOLT-4
A549 = test system: A549
CAKI-1 = test system: CAKI-1
HCT-15 = test system: HCT-15
SF-539 = test system: SF-539
OVCAR-4 = test system: OVCAR-4
KM12 = test system: KM12
SNB-19 = test system: SNB-19

SMILES: OC(CC(c1ccccc1)c1ccc(Cl)cc1)c1ccc(Cl)cc1 (stereo not drawn)
- GI50 (PC-3): 34.9 µM (inactive)
- GI50 (UACC-257): 29.4 µM (inactive)
- GI50 (HL-60): 24.9 µM (inactive)
- GI50 (NCI-H226): 31.6 µM (inactive)
- GI50 (HOP-92): 26.4 µM (inactive)
- GI50 (T47D): 32.6 µM (inactive)
- GI50 (TK-10): 38 µM (inactive)
- GI50 (ACHN): 27.1 µM (inactive)
- GI50 (NCI-H460): 30.1 µM (inactive)
- GI50 (DU-145): 44.9 µM (inactive)
- GI50 (SK-MEL-28): 51.6 µM (inactive)
- GI50 (HCC 2998): 45.5 µM (inactive)
- GI50 (K562): 32.4 µM (inactive)
- GI50 (SR): 27.3 µM (inactive)
- GI50 (SK-OV-3): 36.1 µM (inactive)
- GI50 (HCT-116): 31.3 µM (inactive)
- GI50 (Malme-3M): 25.5 µM (inactive)
- GI50 (IGROV-1): 35.8 µM (inactive)
- GI50 (BT-549): 56.6 µM (inactive)
- GI50 (SF-268): 37.1 µM (inactive)
- GI50 (OVCAR-8): 36.8 µM (inactive)
- GI50 (SNB-75): 29.4 µM (inactive)
- GI50 (NCI/ADR-RES): 33.5 µM (inactive)
- GI50 (HT-29): 35.6 µM (inactive)
- GI50 (LOX IMVI): 27.9 µM (inactive)
- GI50 (SN12C): 25.2 µM (inactive)
- GI50 (RPMI-8226): 26.9 µM (inactive)
- GI50 (COLO 205): 18.5 µM (inactive)
- GI50 (SK-MEL-2): 24 µM (inactive)
- GI50 (MDA-N): 29 µM (inactive)
- GI50 (OVCAR-5): 24.3 µM (inactive)
- GI50 (NCI-H522): 25.1 µM (inactive)
- GI50 (SK-MEL-5): 32 µM (inactive)
- GI50 (U-251): 39.7 µM (inactive)
- GI50 (MDA-MB-435): 27.4 µM (inactive)
- GI50 (EKVX): 30.5 µM (inactive)
- GI50 (M14): 37.3 µM (inactive)
- GI50 (HOP-62): 36.4 µM (inactive)
- GI50 (SW-620): 40.7 µM (inactive)
- GI50 (UACC-62): 30.3 µM (inactive)
- GI50 (CCRF-CEM): 36.8 µM (inactive)
- GI50 (RXF 393): 24.8 µM (inactive)
- GI50 (UO-31): 33.3 µM (inactive)
- GI50 (786-0): 34.1 µM (inactive)
- GI50 (SF-295): 34 µM (inactive)
- GI50 (MCF7): 28.4 µM (inactive)
- GI50 (OVCAR-3): 33.6 µM (inactive)
- GI50 (A498): 25.8 µM (inactive)
- GI50 (NCI-H23): 29.7 µM (inactive)
- GI50 (Hs-578T): 48.1 µM (inactive)
- GI50 (MOLT-4): 34.2 µM (inactive)
- GI50 (A549): 37.8 µM (inactive)
- GI50 (CAKI-1): 27.8 µM (inactive)
- GI50 (HCT-15): 33.4 µM
- GI50 (SF-539): 21.4 µM (inactive)
- GI50 (OVCAR-4): 31.3 µM (inactive)
- GI50 (KM12): 30.8 µM (inactive)
- GI50 (SNB-19): 45.2 µM (inactive)
